This assay has as its target mitochondrial RNA-polymerase (POLRMT) (Mus musculus, UniProt Q8BKF1). Kind of assay: Homogeneous TR-FRET assay for mitochondrial transcription activity. The format is biochemical. The following applies: homogeneous TR-FRET assay according to Example 4; read-out: mitochondrial transcription activity (IC-50). An excerpt: The TR-FRET assay was basically conducted as described in WO 2016/193231A1, especially as described in example 1 (hereby incorporated by reference). With respect to the background of the mitochondrial transcription it is referred to Falkenberg et al. (2002) and Posse et al. (Posse et al. 2015). The method monitors the activity of mitochondrial RNA-polymerase via detection of the formation of its product, a 407 bp long RNA sequence. Detection of the product is facilitated by hybridization of two DNA-oligonucleotide probes to specific and adjacent sequences within the RNA product sequence. Upon annealing of the probes, two fluorophores that are coupled directly to an acceptor nucleotide probe (ATT0647, 5′) or introduced via a coupled streptavidin interacting with a biotinylated donor nucleotide probe on the other side (Europium cryptate, 3) are brought into sufficient proximity to serve as a fluorescence-donor-acceptor pair as generally described in Walters and Namchuk (2003). Thus, a FRET signal at 665 nm is generated upon excitation at 340 nm.
Briefly, the protocol described here was applied for screening and activity determination in a low-volume 384-well microtiter plate with non-binding surface. For high-throughput application in the 1536-well microtiter plate format, volumes of the reagent mixes were adjusted, maintaining the volumetric ratio. Proteins POLRMT (NM_172551.3), TFAM (NM_009360.4) and TFB2M (NM_008249.4) were diluted from their stocks to working concentrations of 150 nM, 1.8 μM and 330 nM respectively, in a dilution buffer containing 100 mM Tris-HCl pH 8.0, 200 mM NaCl, 10% (v/v) glycerole, 2 mM glutathione (GSH), 0.5 mM EDTA and 0.1 mg/mL BSA. Protein dilutions and template DNA, comprising a pUC18 plasmid encoding the mitochondrial light strand promoter, restriction linearized proximal to the promoter 3′-end (pUC-LSP), were mixed at the twofold final assay-concentration in a reaction buffer, containing 10 mM Tris-HCl pH 7.5, 10 mM MgCl2, 40 mM NaCl, 2 mM GSH, 0.01% (w/v) Tween-20 and 0.1 mg/mL BSA.
5 μL of this mix were dispensed, depending on the chosen microtiter plate format, using multi-channel pipettes or a Multidrop® dispenser (Thermo Fisher Scientific, Waltham Mass.) into the wells of a microtiter plate and incubated at room temperature (RT) for 10 min. Chemical compounds under scrutiny in the assay were applied using contact-free acoustic droplet-dispensing (Echo520® Labcyte Inc., Sunnyvale Calif.) from 10 mM compound stocks in 100% DMSO, to a final concentration of 10 μM or in serial dilution series of the required concentration range. Equal amounts of DMSO without any compound were added to positive control samples, followed by an incubation step at RT for 10 min.
The enzymatic reaction was started by the addition of 5 μL of a mix of dNTPs in reaction buffer to a final concentration of 500 μM each. No nucleotide mix was added to negative control samples. The content of the wells was mixed using a VarioTeleshaker™ (Thermo Fisher Scientific, Waltham Mass.) at 1500 rpm for 45 sec after which the microtiter plate was centrifuged at 500×g for 1 min. The samples were incubated for 2 h at RT with humidity control to avoid evaporation. The detection reagents were prepared in a buffer that was composed, such that the enzymatic reaction was terminated due to chelating of Mg-ions and increased ionic strength, containing 50 mM Tris-HCl pH 7.5, 700 mM NaCl, 20 mM EDTA, and 0.01% (w/v) Tween-20. Importantly Eu-cryptate-coupled streptavidin had to be preincubated with a 100-fold molar excess of a random sequence oligonucleotide for 10 min at RT in the dark to block unspecific binding of single stranded RNA to the protein. Subsequently, the blocked streptavidin(-Eu) was mixed with the DNA-probes on ice and kept away from light until use. […]
(TR-FRET usually uses a lanthanide donor and a delayed reading to cut background.)
mitochondrial RNA-polymerase (POLRMT), sequence (Q8BKF1 42-1207): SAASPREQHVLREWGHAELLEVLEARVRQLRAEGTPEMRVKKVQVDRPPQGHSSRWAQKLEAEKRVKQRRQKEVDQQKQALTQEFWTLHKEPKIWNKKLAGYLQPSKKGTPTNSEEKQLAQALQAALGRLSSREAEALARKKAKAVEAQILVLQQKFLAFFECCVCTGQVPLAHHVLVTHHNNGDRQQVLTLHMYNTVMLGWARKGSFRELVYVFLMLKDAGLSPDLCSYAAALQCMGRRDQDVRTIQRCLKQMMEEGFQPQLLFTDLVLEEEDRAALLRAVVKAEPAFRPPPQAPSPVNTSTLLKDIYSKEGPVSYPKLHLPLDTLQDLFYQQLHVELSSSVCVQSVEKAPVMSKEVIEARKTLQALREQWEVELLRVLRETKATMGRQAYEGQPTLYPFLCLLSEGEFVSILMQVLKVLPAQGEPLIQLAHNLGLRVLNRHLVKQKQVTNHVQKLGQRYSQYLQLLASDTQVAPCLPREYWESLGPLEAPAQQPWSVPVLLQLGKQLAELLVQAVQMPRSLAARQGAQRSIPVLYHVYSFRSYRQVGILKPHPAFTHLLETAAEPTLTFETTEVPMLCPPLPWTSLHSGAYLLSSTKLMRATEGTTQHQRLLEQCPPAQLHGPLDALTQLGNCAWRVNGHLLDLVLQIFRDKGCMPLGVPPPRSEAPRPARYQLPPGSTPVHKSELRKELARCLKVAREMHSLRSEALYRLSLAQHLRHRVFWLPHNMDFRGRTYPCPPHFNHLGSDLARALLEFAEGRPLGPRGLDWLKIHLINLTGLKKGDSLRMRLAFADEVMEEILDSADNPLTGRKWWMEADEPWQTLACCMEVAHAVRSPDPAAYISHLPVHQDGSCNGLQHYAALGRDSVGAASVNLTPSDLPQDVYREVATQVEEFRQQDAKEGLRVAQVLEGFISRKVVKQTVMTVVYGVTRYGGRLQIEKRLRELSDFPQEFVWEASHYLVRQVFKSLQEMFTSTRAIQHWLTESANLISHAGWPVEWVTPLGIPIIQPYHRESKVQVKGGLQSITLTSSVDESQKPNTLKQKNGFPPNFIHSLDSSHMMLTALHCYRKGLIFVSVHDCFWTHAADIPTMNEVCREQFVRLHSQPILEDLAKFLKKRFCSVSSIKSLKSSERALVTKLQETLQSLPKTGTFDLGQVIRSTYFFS
On to `CN(C(=O)COc1ccc2c(-c3ccccc3)cc(=O)oc2c1)c1ccc(CCO)cc1` [Compound 40, N-[4-(2-hydroxyethyl)phenyl]-N-methyl-2-(2-oxo-4-phenyl-chromen-7-yl)oxy-acetamide], for which the IC50 fell in the range of 100 to 1000 nM. On to `CCOC(=O)C(C)Oc1ccc2c(-c3ccc(Br)cc3)cc(=O)oc2c1` (stereo not drawn) [Compound 41, ethyl 2-[4-(4-bromophenyl)-2-oxo-chromen-7-yl]oxypropanoate], for which the IC50 fell in the range of 100 to 1000 nM. As for `CC(Oc1cc2oc(=O)cc(-c3ccccc3)c2cc1Cl)C(=O)NCc1ccco1` (stereo not drawn) [Compound 42, 2-(6-chloro-2-oxo-4-phenyl-chromen-7-yl)oxy-N-(2-furylmethyl)propanamide], the IC50 was 100 to 1000 nM. For `CCOC(=O)C1CCCN(C(=O)COc2ccc3c(-c4ccccc4)cc(=O)oc3c2)C1` (stereo not drawn) [Compound 43, ethyl 1-[2-(2-oxo-4-phenyl-chromen-7-yl)oxyacetyl]piperidine-3-carboxylate], the IC50 was 1000 to 10000 nM.

For `CC(C)(C)OC(=O)COc1ccc2c(-c3ccccc3)cc(=O)oc2c1` [Compound 44, tert-butyl 2-(2-oxo-4-phenyl-chromen-7-yl)oxyacetate], the IC50 was in the range of 100 to 1000 nM. On to `O=C(COc1cc2oc(=O)cc(-c3ccccc3)c2cc1Cl)N1CCOCC1` [Compound 45, 6-chloro-7-(2-morpholino-2-oxo-ethoxy)-4-phenyl-chromen-2-one], for which the IC50 lay within 1000 to 10000 nM. With `O=C(COc1cc2oc(=O)cc(-c3ccccc3)c2cc1Cl)NC1CC1` [Compound 46, 2-(6-chloro-2-oxo-4-phenyl-chromen-7-yl)oxy-N-cyclopropyl-acetamide], the IC50 is 100 to 1000 nM. Regarding `CCN(CC)C(=O)COc1cc2oc(=O)cc(-c3ccccc3)c2cc1Cl` [Compound 47, 2-(6-chloro-2-oxo-4-phenyl-chromen-7-yl)oxy-N,N-diethyl-acetamide], the IC50 lay within 100 to 1000 nM. Turning to `CCN(CC)C(=O)COc1ccc2c(-c3ccccc3)cc(=O)oc2c1` [Compound 48, N,N-diethyl-2-(2-oxo-4-phenyl-chromen-7-yl)oxy-acetamide], the IC50 lay within 1000 to 10000 nM. To `CCOC(=O)COc1cc2oc(=O)cc(-c3ccccc3)c2cc1Cl` [Compound 49, ethyl 2-(6-chloro-2-oxo-4-phenyl-chromen-7-yl)oxyacetate] belongs 100 to 1000 nM; to `CCOC(=O)C(C)Oc1cc2oc(=O)cc(-c3ccccc3)c2cc1Cl` (stereo not drawn) [Compound 50, ethyl 2-(6-chloro-2-oxo-4-phenyl-chromen-7-yl)oxypropanoate], 100 to 1000 nM; to `CC(Oc1ccc2c(-c3ccccc3)cc(=O)oc2c1)C(=O)O` (stereo not drawn) [Compound 51, 2-(2-oxo-4-phenyl-chromen-7-yl)oxypropanoic acid], 100 to 1000 nM. With `O=C(O)C1CCCN(C(=O)COc2ccc3c(-c4ccccc4)cc(=O)oc3c2)C1` (stereo not drawn) [Compound 54, 1-[2-(2-oxo-4-phenyl-chromen-7-yl)oxyacetyl]piperidine-3-carboxylic acid], the IC50 is 100 to 1000 nM. Take `CC(Oc1ccc2c(-c3ccccc3)cc(=O)oc2c1)C(=O)Nc1cccnc1` (stereo not drawn) [Compound 55, 2-(2-oxo-4-phenyl-chromen-7-yl)oxy-N-(3-pyridyl)propanamide]: the IC50 was in the range of 1000 to 10000 nM. Turning to `COC(=O)C(C)Oc1ccc2c(-c3ccccc3)cc(=O)oc2c1` (stereo not drawn) [Compound 56, methyl 2-(2-oxo-4-phenyl-chromen-7-yl)oxypropanoate], the IC50 was 100 to 1000 nM. Then `O=C(COc1cc2oc(=O)cc(-c3ccccc3)c2cc1Cl)Nc1ccc(CCO)cc1` [Compound 57, 2-(6-chloro-2-oxo-4-phenyl-chromen-7-yl)oxy-N-[4-(2-hydroxyethyl)phenyl]acetamide], with 100 to 1000 nM; and `COC(=O)C(C)Oc1cc2oc(=O)cc(-c3ccccc3)c2cc1Cl` (stereo not drawn) [Compound 58, methyl 2-(6-chloro-2-oxo-4-phenyl-chromen-7-yl)oxypropanoate], with 100 to 1000 nM; and `O=C(COc1cc2oc(=O)cc(-c3ccccc3)c2cc1Cl)NCc1cccnc1` [Compound 59, 2-(6-chloro-2-oxo-4-phenyl-chromen-7-yl)oxy-N-(3-pyridylmethyl)acetamide], with 1000 to 10000 nM.

On to `CC(Oc1ccc2c(-c3ccccc3)cc(=O)oc2c1)C(=O)N1CCCC(C(N)=O)C1` (stereo not drawn) [Compound 60, 1-[2-(2-oxo-4-phenyl-chromen-7-yl)oxypropanoyl]piperidine-3-carboxamide], for which the IC50 lay within 1000 to 10000 nM. To `CC(Oc1ccc2c(-c3ccccc3)cc(=O)oc2c1)C(=O)Nc1ccncc1` (stereo not drawn) [Compound 61, 2-(2-oxo-4-phenyl-chromen-7-yl)oxy-N-(4-pyridyl)propanamide] belongs 1000 to 10000 nM. To `CNC(=O)C1CCCN(C(=O)C(C)Oc2ccc3c(-c4ccccc4)cc(=O)oc3c2)C1` (stereo not drawn) [Compound 62, N-methyl-1-[2-(2-oxo-4-phenyl-chromen-7-yl)oxypropanoyl]piperidine-3-carboxamide] belongs 1000 to 10000 nM; to `COC(=O)C1CCN(C(=O)C(C)Oc2ccc3c(-c4ccccc4)cc(=O)oc3c2)CC1` (stereo not drawn) [Compound 63, methyl 1-[2-(2-oxo-4-phenyl-chromen-7-yl)oxypropanoyl]piperidine-4-carboxylate], 1000 to 10000 nM.

As for `C[C@@H](Oc1ccc2c(-c3ccccc3)cc(=O)oc2c1)C(=O)O` [Compound 66, (2R)-2-(2-oxo-4-phenyl-chromen-7-yl)oxypropanoic acid], the IC50 is 1000 to 10000 nM. As for `CC(Oc1ccc2c(-c3ccccc3)cc(=O)oc2c1)C(N)=O` (stereo not drawn) [Compound 67, 2-(2-oxo-4-phenyl-chromen-7-yl)oxypropanamide], the IC50 lay within 1000 to 10000 nM. In the case of `CC(Oc1ccc2c(-c3ccccc3)cc(=O)oc2c1)C(=O)N1CCC(C(=O)O)CC1` (stereo not drawn) [Compound 69, 1-[2-(2-oxo-4-phenyl-chromen-7-yl)oxypropanoyl]piperidine-4-carboxylic acid], the IC50 fell in the range of 1000 to 10000 nM. `CC(Oc1ccc2c(-c3ccccc3)cc(=O)oc2c1)C(=O)NCCN1CCOCC1` (stereo not drawn) [Compound 70, N-(2-morpholinoethyl)-2-(2-oxo-4-phenyl-chromen-7-yl)oxy-propanamide]: the IC50 was in the range of 1000 to 10000 nM. To `CCOC(=O)C(CC)Oc1ccc2c(-c3ccccc3)cc(=O)oc2c1` (stereo not drawn) [Compound 71, ethyl 2-(2-oxo-4-phenyl-chromen-7-yl)oxybutanoate] belongs 1000 to 10000 nM; to `COc1ccc(NC(=O)C(C)Oc2ccc3c(-c4ccccc4)cc(=O)oc3c2)cc1` (stereo not drawn) [Compound 72, N-(4-methoxyphenyl)-2-(2-oxo-4-phenyl-chromen-7-yl)oxy-propanamide], 1000 to 10000 nM. As for `CCOCCOC(=O)COc1ccc2c(-c3ccccc3)cc(=O)oc2c1` [Compound 73, 2-ethoxyethyl 2-(2-oxo-4-phenyl-chromen-7-yl)oxyacetate], the IC50 was in the range of 1000 to 10000 nM.

On to `CCCOC(=O)COc1ccc2c(-c3ccccc3)cc(=O)oc2c1` [Compound 74, propyl 2-(2-oxo-4-phenyl-chromen-7-yl)oxyacetate], for which the IC50 lay in the range of 1000 to 10000 nM.

In the case of `NC(=O)COc1ccc2c(-c3ccccc3)cc(=O)oc2c1` [Compound 75, 2-(2-oxo-4-phenyl-chromen-7-yl)oxyacetamide], the IC50 lay in the range of 1000 to 10000 nM. On to `CCCCOC(=O)COc1ccc2c(-c3ccccc3)cc(=O)oc2c1` [Compound 76, butyl 2-(2-oxo-4-phenyl-chromen-7-yl)oxyacetate], for which the IC50 is 1000 to 10000 nM. Then `CC(C)COC(=O)COc1ccc2c(-c3ccccc3)cc(=O)oc2c1` [Compound 77, isobutyl 2-(2-oxo-4-phenyl-chromen-7-yl)oxyacetate], with 1000 to 10000 nM.

For the origin of these results see patent US10703735B2, “4-phenyl-coumarin derivatives, processes for their preparation and uses thereof for the treatment of cancer” (Lead Discovery Center GmbH, priority 2018, dated 2020).
